Legend:
[1] = tested on: embryogenic callus from Double Take; test: Somatic embryo induction in liquid medium (flask), effects of sugar composition and addition of BA; format: cell-based, Spathiphyllum (cultivar Double Take); conditions: sucrose 0%, sorbitol 3%, fructose 1.1%, BA 0 ppm
Experimental: (§1) MS liquid medium (pH 5.8) containing 1% sucrose, 3% sorbitol, and MES 5 mM was used as basal medium. Proline and glutamic acid were added to the media at the following concentrations. […] The fresh weights the thus induced somatic embryos were measured (Table 1).
Media with compositions listed in Table 2 were prepared (compositions other than those listed in Table 2 were the same as those of the “somatic embryo induction medium.”).

[2] = tested on: embryogenic callus of the cultivar Petite; test: Somatic embryo induction in liquid medium (shaken Erlenmeyer flask), effects of proline and glutamic acid; format: cell-based, Spathiphyllum (cultivar Petite); conditions: 0.05 g callus, 40 ml medium, 6 weeks
Experimental: as §1

With `O=C(CO)[C@@H](O)[C@H](O)[C@H](O)CO` [Fructose, fructose] the “Weight of somatic embryo” value [1] was 3.8 (g)/flask.
With `N[C@@H](CCC(=O)O)C(=O)O` [Glutamic acid, glutamic acid] the “Amount of embryo collected” value ([2]; proline 0 mM, glutamic acid 3 mM) was 3.5 g/flask.
`O=C(O)[C@@H]1CCCN1` [Proline, proline] was tested, and the “Amount of embryo collected” value ([2]; proline 3 mM, glutamic acid 0 mM) was 3.4 g/flask.

Source: patent US20090111182A1, “Method for Propagation of Plant” (priority 2005, published 2009)
